US12383539B2 (Cavion, Inc., priority 2018, dated 2025)

How the values were obtained:
Type in all cases: in vivo, human
[1] = Food effect: MR2 capsules fed vs fasted; conditions: MR2 CX-8998, single 8 mg dose
Source text: Subjects will be screened for study eligibility within 28 days before administration of the first dose of study drug. Subjects who meet the study eligibility criteria will be admitted to the clinical research unit in the afternoon of the day before administration of the first dose of study drug (Period 1/Day −1).

[2] = tested on: patients with essential tremor; test: T-CALM: TETRAS activities of daily living subscale (TETRAS-ADL); conditions: for TETRAS-ADL score (change from baseline), Mean (SD) / TETRAS-ADL score (change from baseline), Median / TETRAS-ADL score (change from baseline), Median (minimum, maximum): post-hoc
Source text: The sum of the individual scores provides the overall score, ranging from 0 to 48. The complete TETRAS ADL Subscale is as follows.
Rate tremor's impact on activities of daily living (0-4 scoring).
• 0=Normal. • 1=Slight voice tremulousness, only when “nervous”. • 2=Mild voice tremor. All words easily understood. • 3=Moderate voice tremor. Some words difficult to understand. • 4=Severe voice tremor. Most words difficult to understand. 2. Feeding with a Spoon • 0=Normal. • 1=Slightly abnormal. […] Spills a little. • 3=Moderately abnormal. Spills a lot or changes strategy to complete task such as using two hands or leaning over. • 4=Severely abnormal. Cannot feed with a spoon. 3. Drinking from a Glass • 0=Normal. • 1=Slightly abnormal. […] Spills a little. • 3=Moderately abnormal. Spills a lot or changes strategy to complete task such as using two, hands or leaning over. • 4=Severely abnormal. Cannot drink from a glass or uses straw or sippy cup. 4. Hygiene • 0=Normal. • 1=Slightly abnormal. […] Some difficulty but can complete task. • 3=Moderately abnormal. Unable to do most fine tasks such as putting on lipstick or shaving unless changes strategy such as using two hands or using the less affected hand. 4=Severely abnormal. Cannot complete hygiene tasks independently. 5. Dressing • 0=Normal. • 1=Slightly abnormal. […] Able to do everything but has difficulty due to tremor. • 3=Moderately abnormal. Unable to do most dressing unless changes strategy such as using Velcro, buttoning shirt before putting it on or avoiding shoes with laces. • 4=Severely abnormal. Cannot dress independently. 6. Pouring • 0=Normal. • 1=Slightly abnormal. […] Must be very careful to avoid spilling but may spill occasionally. • 3=Moderately abnormal. Must use two hands or uses other strategies to avoid spilling. • 4=Severely abnormal. Cannot pour. 7. Carrying Food Trays, Plates or Similar Items • 0=Normal. • 1=Slightly abnormal. […] Must be very careful to avoid spilling items on food tray. • 3=Moderately abnormal. Uses strategies such as holding tightly against body to carry. • 4=Severely abnormal. Cannot carry food trays or similar items. 8. Using Keys • 0=Normal. • 1=Slightly abnormal. Tremor is present but can insert key with one hand without difficulty. • 2=Mildly abnormal. Commonly misses target but still routinely puts key in lock with one hand. • 3=Moderately abnormal. Needs to use two hands or other strategies to put key in lock. • 4=Severely abnormal. Cannot put key in lock. 9. Writing • 0=Normal. • 1=Slightly abnormal. […] Difficulty writing due to tremor. • 3=Moderately abnormal. Cannot write without using strategies such as holding the writing hand with the other hand, holding pen differently or using large pen. • 4=Severely abnormal. Cannot write. 10. Working. If Patient is Retired, Ask as if they were Still Working. If the Patient is a Housewife, Ask the Question as it Relates to Housework: • 0=Normal. • 1=Slightly abnormal. […] Tremor interferes with work; able to do everything, but with errors. • 3=Moderately abnormal. Unable to continue working without using strategies such as changing jobs or using special equipment. • 4=Severely abnormal. Cannot perform any job or household work. 11. Overall Disability with the Most Affect Task (Name Task, e.g. Using Computer Mouse, Writing, Etc.) • Task ______ • 0=Normal. • 1=Slightly abnormal. […] Tremor interferes with task but still able to perform task. • 3=Moderately abnormal. Can do task but must use strategies. • 4=Severely abnormal. Cannot do the task. 12.
Analyses of the TETRAS-ADL was conducted using the same type of ANCOVA model as described for the TETRAS-PS, using two-sided tests at the alpha=0.05 level of significance (FIG. 2 and Table 2).

[3] = tested on: patients with essential tremor; test: T-CALM: TETRAS total score
Description: The Total TETRAS score was defined as the sum of the TETRAS performance subscale total score and the TETRAS ADL subscale score. TETRAS TOTAL score combines both patient reported outcome and objective measurement of tremor amplitude in a single score. Analyses of the TETRAS-ADL was conducted using the same type of ANCOVA model as described for the TETRAS-PS, using two-sided tests at the alpha=0.05 level of significance (FIG. 3 and Table 3).

[4] = patients Minimally Improved by CGI-I, Day 15
[5] = patients Minimally Improved by CGI-I, Day 28
[6] = patients Minimally Improved by PGIC, Day 15
[7] = patients Minimally Improved by PGIC, Day 28

Structure (SMILES): CC(C)c1ccc(CC(=O)N[C@H](C)c2ccc(OCC(F)(F)F)cn2)cc1 [CX-8998]
- effect of fed state on overall exposure (AUC) [1]: does not appear to significantly impact overall exposure
- effect of fed vs fasted state on absorption [1]: impacts early absorption of the CX-8998, but does not appear to significantly impact late absorption
- responders: improvement of at least 5 points by TETRAS-ADL score, % ([2]; Day 15): (46.2%)
- responders: improvement of at least 5 points by TETRAS-ADL score, number ([2]; Day 15, N 39): 18
- TETRAS-ADL change from baseline 0 change: subjects, number (%) ([2]; Day 15, N = 39): 2 (5.1%)
- TETRAS-ADL change from baseline >0 to 1 point improvement: subjects, number (%) ([2]; Day 15, N = 39): 5 (12.8%)
- TETRAS-ADL change from baseline >0 to 1 point worsening: subjects, number (%) ([2]; Day 15, N = 39): 1 (2.6%)
- TETRAS-ADL change from baseline >1 to 2.5 point improvement: subjects, number (%) ([2]; Day 15, N = 39): 2 (5.1%)
- TETRAS-ADL change from baseline >1 to 2.5 point worsening: subjects, number (%) ([2]; Day 15, N = 39): 3 (7.7%)
- TETRAS-ADL change from baseline >2.5 to 5 point improvement: subjects, number (%) ([2]; Day 15, N = 39): 7 (17.9%)
- TETRAS-ADL change from baseline >2.5 to 5 point worsening: subjects, number (%) ([2]; Day 15, N = 39): 3 (7.7%)
- TETRAS-ADL change from baseline >5 to 10 point improvement: subjects, number (%) ([2]; Day 15, N = 39): 11 (28.2%)
- TETRAS-ADL change from baseline >5 to 10 point worsening: subjects, number (%) ([2]; Day 15, N = 39): 0
- TETRAS-ADL change from baseline >10 point improvement: subjects, number (%) ([2]; Day 15, N = 39): 5 (12.8%)
- TETRAS-ADL change from baseline >10 point worsening: subjects, number (%) ([2]; Day 15, N = 39): 0
- responders: improvement of at least 5 points by TETRAS-ADL score, % ([2]; Day 28): (29.7%)
- responders: improvement of at least 5 points by TETRAS-ADL score, number ([2]; Day 28, N 37): 11
- TETRAS-ADL change from baseline 0 change: subjects, number (%) ([2]; Day 28, N = 37): 5 (13.5%)
- TETRAS-ADL change from baseline >0 to 1 point improvement: subjects, number (%) ([2]; Day 28, N = 37): 2 (5.4%)
- TETRAS-ADL change from baseline >0 to 1 point worsening: subjects, number (%) ([2]; Day 28, N = 37): 3 (8.1%)
- TETRAS-ADL change from baseline >1 to 2.5 point improvement: subjects, number (%) ([2]; Day 28, N = 37): 3 (8.1%)
- TETRAS-ADL change from baseline >1 to 2.5 point worsening: subjects, number (%) ([2]; Day 28, N = 37): 3 (8.1%)
- TETRAS-ADL change from baseline >2.5 to 5 point improvement: subjects, number (%) ([2]; Day 28, N = 37): 7 (18.9%)
- TETRAS-ADL change from baseline >2.5 to 5 point worsening: subjects, number (%) ([2]; Day 28, N = 37): 3 (8.1%)
- TETRAS-ADL change from baseline >5 to 10 point improvement: subjects, number (%) ([2]; Day 28, N = 37): 6 (16.2)
- TETRAS-ADL change from baseline >5 to 10 point worsening: subjects, number (%) ([2]; Day 28, N = 37): 0
- TETRAS-ADL change from baseline >10 point improvement: subjects, number (%) ([2]; Day 28, N = 37): 5 (13.5%)
- TETRAS-ADL change from baseline >10 point worsening: subjects, number (%) ([2]; Day 28, N = 37): 0
- TETRAS-ADL score (change from baseline), Mean (SD) [2, 4]: −3.7 (4.21)
- TETRAS-ADL score (change from baseline), Median [2, 4]: −2.0
- TETRAS-ADL score (change from baseline), Mean (SD) [2, 5]: −4.4 (8.10)
- TETRAS-ADL score (change from baseline), Median (minimum, maximum) [2, 5]: −1.0 (−24, 3)
- TETRAS-ADL score (change from baseline), Mean (SD) [2, 6]: −3.3 (4.27)
- TETRAS-ADL score (change from baseline), Median [2, 6]: −4.0
- TETRAS-ADL score (change from baseline), Mean (SD) [2, 7]: −1.6 (3.84)
- TETRAS-ADL score (change from baseline), Median (minimum, maximum) [2, 7]: −1.0 (−7, 3)
- responders: improvement of at least 5 points by TETRAS Total score, % ([3]; Day 15): (56.4%)
- responders: improvement of at least 5 points by TETRAS Total score, number ([3]; Day 15, N 39): 22
- TETRAS Total change from baseline 0 change: subjects, number (%) ([3]; Day 15, N = 39): 1 (2.6%)
- TETRAS Total change from baseline >0 to 1 point improvement: subjects, number (%) ([3]; Day 15, N = 39): 2 (5.1%)
- TETRAS Total change from baseline >0 to 1 point worsening: subjects, number (%) ([3]; Day 15, N = 39): 2 (5.1%)
- TETRAS Total change from baseline >1 to 2.5 point improvement: subjects, number (%) ([3]; Day 15, N = 39): 2 (5.1%)
- TETRAS Total change from baseline >1 to 2.5 point worsening: subjects, number (%) ([3]; Day 15, N = 39): 1 (2.6%)
- TETRAS Total change from baseline >2.5 to 5 point improvement: subjects, number (%) ([3]; Day 15, N = 39): 7 (17.9%)
- TETRAS Total change from baseline >2.5 to 5 point worsening: subjects, number (%) ([3]; Day 15, N = 39): 4 (10.3%)
- TETRAS Total change from baseline >5 to 10 point improvement: subjects, number (%) ([3]; Day 15, N = 39): 6 (15.4%)
- TETRAS Total change from baseline >5 to 10 point worsening: subjects, number (%) ([3]; Day 15, N = 39): 0
- TETRAS Total change from baseline >10 to 20 point improvement: subjects, number (%) ([3]; Day 15, N = 39): 12 (30.8%)
- TETRAS Total change from baseline >20 point improvement: subjects, number (%) ([3]; Day 15, N = 39): 2 (5.1%)
- TETRAS Total change from baseline >point worsening: subjects, number (%) ([3]; Day 15, N = 39): 0
- total TETRAS score with TETRAS-PS rated by independent video raters, vs placebo ([3]; Day 15 and Day 28): trended toward improvement for the CX-8998 group but was not statistically significant
- responders: improvement of at least 5 points by TETRAS Total score, % ([3]; Day 28): (56.8%)
- responders: improvement of at least 5 points by TETRAS Total score, number ([3]; Day 28, N 37): 21
- TETRAS Total change from baseline 0 change: subjects, number (%) ([3]; Day 28, N = 37): 0
- TETRAS Total change from baseline >0 to 1 point improvement: subjects, number (%) ([3]; Day 28, N = 37): 2 (5.4%)
- TETRAS Total change from baseline >0 to 1 point worsening: subjects, number (%) ([3]; Day 28, N = 37): 4 (10.8%)
- TETRAS Total change from baseline >1 to 2.5 point improvement: subjects, number (%) ([3]; Day 28, N = 37): 2 (5.4%)
- TETRAS Total change from baseline >1 to 2.5 point worsening: subjects, number (%) ([3]; Day 28, N = 37): 2 (5.4%)
- TETRAS Total change from baseline >2.5 to 5 point improvement: subjects, number (%) ([3]; Day 28, N = 37): 5 (13.5%)
- TETRAS Total change from baseline >2.5 to 5 point worsening: subjects, number (%) ([3]; Day 28, N = 37): 1 (2.7%)
- TETRAS Total change from baseline >5 to 10 point improvement: subjects, number (%) ([3]; Day 28, N = 37): 7 (18.9%)
- TETRAS Total change from baseline >5 to 10 point worsening: subjects, number (%) ([3]; Day 28, N = 37): 0
- TETRAS Total change from baseline >10 point worsening: subjects, number (%) ([3]; Day 28, N = 37): 0
- TETRAS Total change from baseline >10 to 20 point improvement: subjects, number (%) ([3]; Day 28, N = 37): 8 (21.6%)
- TETRAS Total change from baseline >20 point improvement: subjects, number (%) ([3]; Day 28, N = 37): 5 (13.5%)
